Source: patent US20260345593A1, “ORAL FORMULATION OF N-PYRIDINYL ACETAMIDE DERIVATIVE FOR TREATING INTERSTITIAL LUNG DISEASE” (AstraZeneca AB, priority 2022, published 2026)

Key:
[1] = Example 2, second clinical study: pharmacokinetics, bioavailability, food and rabeprazole effect; format: in vivo, human; conditions: for bioavailability: human, in vivo, po, 20 mg, 20 mg film-coated tablet, fasted, vs IV infusion
Method: The study comprises a screening period of maximum 28 days, and five periods during which subjects will participate from Day −1 of Period 1 to 72 hours after the AZD5055 dose in Period 5.
Period 1: On Day 1, the subjects will receive either 5 mg AZD5055 as a 20-minute IV infusion (Treatment A) in an overnight fasted state or AZD5055 20 mg as oral suspension (Treatment B) in an overnight fasted state.
Period 2: On Day 1 (Study Day 4), the subjects will receive 20 mg AZD5055 film-coated tablet (Treatment C) in an overnight fasted state.
Period 3: On Day 1 (Study Day 8) the subjects will receive a standardized high-fat breakfast 30 minutes before 20 mg AZD5055 administered as film-coated tablet (Treatment D).
Period 4: On Study Day 10, three days prior to Day 1, 20 mg rabeprazole will be administered twice daily. On Day 1 (Study Day 13), 20 mg AZD5055 film-coated tablet will be administered together with rabeprazole and rabeprazole dosing will continue twice daily (Treatment E).
Period 5: On Day 1 (Study Day 17) the participants will receive a low-fat breakfast 30 minutes before 20 mg AZD5055 film-coated tablet administered together with 20 mg rabeprazole.
Rabeprazole will continue twice daily, the last dose is on the evening of Study Day 18 (Treatment F).
There will be a minimum washout of 3 days between the AZD5055 dose administration in Period 1 and Period 2 and a minimum washout of 4 days between AZD5055 doses administrations for subsequent study periods. Repeated PK (pharmacokinetic) sampling will be performed pre-dose to 48 hours after dosing of AZD5055 of each period. Subjects will be discharged on Study Day 20 (Day 4 of Period 5), after all the samples have been collected and all the assessments have been performed.
Rabeprazole is administered as oral doses of 20 mg BID in the morning and evening. Pre-treatment with rabeprazole for 3 days is required to reach the PD (pharmacodynamic) steady state of pH elevation prior to administration of AZD5055.
A high-fat, high-calorie breakfast constitutes the following: 2 eggs fried in butter; 2 strips of bacon; 2 slices of toast with butter; 112 g/4 oz of hash-brown potatoes; 240 mL/8 oz of whole milk.
A low-fat, low-calorie breakfast constitutes the following: 1 boiled egg; 1 packet flavoured instant oatmeal made with water; 240 mL/8 oz milk (1% fat).
Pharmacokinetic Parameters—Pharmacokinetic parameters of AZD5055 included, but were not limited to, Cmax, AUCinf, and AUClast.
Approximately 18 healthy participants were enrolled to ensure that at least 15 participants completed the 5-period study. It was expected that the proposed sample size would give adequate information on the effect of formulation and concomitant treatment on the exposure of AZD5055, while exposing as few participants as possible to study procedures. Interpretation of the results were based on the estimated geometric mean ratio (GMR) and the associated 90% confidence interval (CI) between the combination of test and reference for AUC and Cmax.
Plasma concentrations were listed for each participant at each actual sampling time and summarized by treatment and nominal sampling time, using the same descriptive statistics as for the PK parameters. Graphical presentations included individual and geometric mean time-concentration curves (actual sampling time for individual curves and nominal sampling time for mean curves) on linear and semi-logarithmic scale. Pharmacokinetic variables and diagnostics of the PK analysis were listed, and PK variables were summarized by treatment using descriptive statistics (n, geometric mean, geometric coefficient of variation [gCV; %], arithmetic mean, arithmetic standard deviation [SD], minimum [min], median, and maximum [max]) for all variables except tmax, which were summarized using n, min, median, and max. […]

[2] = oral bioavailability in several animal species; conditions: in vivo, read-out: observed oral bioavailability
[3] = 20 mg film-coated tablet vs oral suspension
[4] = tablet + rabeprazole fasted vs AZD5055 fasted alone
[5] = tablet + rabeprazole fed vs AZD5055 fasted alone
[6] = tablet with rabeprazole, fed vs fasted

Which “reduction in Cmax, tablet vs oral suspension” value [1, 3] does the source give for `Cc1cc(-c2nccc3c2ccn3CC(=O)Nc2ccc(-c3cnccn3)cn2)ccn1` [AZD5055, 2-[4-(2-methyl-4-pyridyl)pyrrolo[3,2-c]pyridin-1-yl]-N-(5-pyrazin-2-yl-2-pyridyl)acetamide] here?
The value was “approximately 35%”.

What about the “total systemic exposure (AUCinf and AUClast), tablet vs oral suspension” value [1, 3] of the same molecule?
Its value is “comparable”.

And the “Cmax relative to IV dose” value ([1]; film-coated tablet, percent of the IV dose)?
Its value is “approximately 21%”.

What about the bioavailability ([1]; read-out: absolute bioavailability based on AUCinf) of the same molecule?
Its bioavailability is ~66%.

And the bioavailability ([1]; read-out: absolute bioavailability based on AUClast)?
Its bioavailability is ~64%.

And the “change in total systemic exposure (AUCinf and AUClast) with rabeprazole, fasted” value [1, 4]?
The value was “no change in total systemic exposure”.

What about the “reduction in Cmax with rabeprazole, fasted” value [1, 4] of the same molecule?
The value was 32%.

And the “change in total systemic exposure (AUCinf and AUClast) with rabeprazole, fed” value [1, 5]?
The value was “no change in total systemic exposure”.

What about the “reduction in Cmax with rabeprazole, fed” value [1, 5] of the same molecule?
The value was 20%.

And the “food effect on total systemic exposure with rabeprazole” value [1, 6]?
Its value is “food did not impact total systemic exposure”.

What about the “increase in Cmax by food with rabeprazole” value [1, 6] of the same molecule?
The value was “approximately 17%”.

And the bioavailability [2]?
The bioavailability was 40 to 60%.
